In ChEMBL document CHEMBL4619828, “Discovery of Potent and Orally Bioavailable Small Molecule Antagonists of Toll-like Receptors 7/8/9 (TLR7/8/9)” (ACS Med Chem Lett, 2020):
pEC50, pIC50: −log10 of the molar value.

Experiments:
Toll-like receptor 9 [1] = target: T1, Toll-like receptor 9 (Mus musculus, UniProt Q9EQU3)
T1 sequence (Q9EQU3 whole entry): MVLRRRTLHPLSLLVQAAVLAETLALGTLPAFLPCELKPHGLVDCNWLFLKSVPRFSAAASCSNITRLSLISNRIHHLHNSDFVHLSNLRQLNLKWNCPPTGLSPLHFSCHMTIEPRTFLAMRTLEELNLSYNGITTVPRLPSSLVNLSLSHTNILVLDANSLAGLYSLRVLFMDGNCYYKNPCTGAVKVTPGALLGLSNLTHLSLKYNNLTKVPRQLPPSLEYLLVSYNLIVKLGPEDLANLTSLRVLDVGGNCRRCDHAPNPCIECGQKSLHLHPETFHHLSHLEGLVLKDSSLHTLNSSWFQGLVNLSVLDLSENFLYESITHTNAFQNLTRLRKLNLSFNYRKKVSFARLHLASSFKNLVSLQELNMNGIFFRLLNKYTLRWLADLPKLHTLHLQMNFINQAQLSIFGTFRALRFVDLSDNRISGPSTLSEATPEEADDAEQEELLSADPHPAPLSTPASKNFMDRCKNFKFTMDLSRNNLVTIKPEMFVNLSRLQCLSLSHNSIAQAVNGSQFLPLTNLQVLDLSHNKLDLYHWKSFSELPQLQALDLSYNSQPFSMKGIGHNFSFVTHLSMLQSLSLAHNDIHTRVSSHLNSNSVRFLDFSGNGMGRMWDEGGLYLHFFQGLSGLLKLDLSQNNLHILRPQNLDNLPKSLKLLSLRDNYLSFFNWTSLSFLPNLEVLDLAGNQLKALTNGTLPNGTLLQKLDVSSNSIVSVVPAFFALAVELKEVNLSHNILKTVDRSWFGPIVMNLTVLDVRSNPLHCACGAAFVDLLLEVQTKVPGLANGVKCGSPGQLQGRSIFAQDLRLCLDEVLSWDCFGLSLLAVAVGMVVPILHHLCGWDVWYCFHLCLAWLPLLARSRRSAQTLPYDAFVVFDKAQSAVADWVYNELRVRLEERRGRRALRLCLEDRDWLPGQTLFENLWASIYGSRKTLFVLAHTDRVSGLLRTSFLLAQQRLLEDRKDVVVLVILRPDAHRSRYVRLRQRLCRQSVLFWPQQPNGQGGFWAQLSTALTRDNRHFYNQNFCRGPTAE
Description: In vivo antagonist activity at TLR9 in po dosed C57BL/6 mouse assessed as reduction of CpG-ODN-1585-induced IL-6 production pretreated for 30 mins followed by CpG-ODN-1585-stimulation and measured after 120 mins by ELISA

[2] = Clearance in mouse at 3 mg/kg, iv; format: ADME, organism-based; conditions: in vivo
Toll-like receptor 9 [3] = target: T2, Toll-like receptor 9 (Homo sapiens, UniProt Q9NR96); test: Antagonist activity at TLR9 in human pDC assessed as inhibition of ODN2216-induced IFN-alpha production incubated for 24 hrs measured by ELISA
T2 sequence (Q9NR96 whole entry): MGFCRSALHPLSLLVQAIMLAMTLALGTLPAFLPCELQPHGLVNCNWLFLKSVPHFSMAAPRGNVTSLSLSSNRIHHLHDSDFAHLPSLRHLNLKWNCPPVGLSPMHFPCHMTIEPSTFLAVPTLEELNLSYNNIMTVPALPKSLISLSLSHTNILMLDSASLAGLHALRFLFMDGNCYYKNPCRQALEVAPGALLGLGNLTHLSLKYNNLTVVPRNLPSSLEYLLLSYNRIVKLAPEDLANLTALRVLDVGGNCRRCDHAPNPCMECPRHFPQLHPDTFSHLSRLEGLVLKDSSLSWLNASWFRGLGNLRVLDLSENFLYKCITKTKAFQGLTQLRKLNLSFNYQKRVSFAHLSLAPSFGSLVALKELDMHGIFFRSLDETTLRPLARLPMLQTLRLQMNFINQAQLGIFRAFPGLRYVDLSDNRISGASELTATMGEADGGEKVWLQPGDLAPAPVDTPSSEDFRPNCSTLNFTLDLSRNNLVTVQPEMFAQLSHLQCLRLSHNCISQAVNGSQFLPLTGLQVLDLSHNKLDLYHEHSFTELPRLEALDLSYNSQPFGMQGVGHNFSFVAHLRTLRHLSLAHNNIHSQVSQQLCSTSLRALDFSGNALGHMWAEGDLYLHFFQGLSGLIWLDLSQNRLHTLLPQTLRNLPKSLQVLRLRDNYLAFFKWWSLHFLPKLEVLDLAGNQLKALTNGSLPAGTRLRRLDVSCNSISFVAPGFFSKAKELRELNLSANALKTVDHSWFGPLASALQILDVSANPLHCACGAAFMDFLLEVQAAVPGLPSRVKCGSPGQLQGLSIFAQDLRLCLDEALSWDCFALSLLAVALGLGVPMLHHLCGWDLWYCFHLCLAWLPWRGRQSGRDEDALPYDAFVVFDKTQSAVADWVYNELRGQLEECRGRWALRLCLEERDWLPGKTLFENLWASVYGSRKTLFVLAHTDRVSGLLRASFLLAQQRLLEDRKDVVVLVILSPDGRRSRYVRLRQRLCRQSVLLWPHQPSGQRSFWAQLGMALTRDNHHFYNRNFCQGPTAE

[4] = Terminal half life in mouse at 3 mg/kg, iv; format: ADME, organism-based; conditions: in vivo, read-out: beta t1/2 (converted)
Toll-like receptor 9 [5] = target: T2, Toll-like receptor 9; test: Antagonist activity at human TLR9 overexpressed in HEK-Blue cells assessed as inhibition of ODN2006-induced NFkappaB and AP-1 activation preincubated for 30 mins followed by ODN2006 stimulation measured after 22 hrs by quanti-blue SEAP assay; format: cell-based
Toll-like receptor 9 [6] = target: T2, Toll-like receptor 9; test: Agonist activity at human TLR9 overexpressed in HEK-Blue cells assessed as NFkappaB expression by reporter gene assay; format: cell-based
Toll-like receptor 9 [7] = target: T2, Toll-like receptor 9; test: Antagonist activity at TLR9 in human whole blood cells assessed as inhibition of ODN-2216 induced IL-6 production by ELISA; format: cell-based

pEC50 (Toll-like receptor 9 [1]): 7.60 | clearance [2]: 7.7 mL/min/kg | pIC50 (Toll-like receptor 9 [3]): 6.68 | half-life [4]: 32 h | pIC50 (Toll-like receptor 9 [5]): 6.15 | pIC50 (Toll-like receptor 9 [6]): < 4.30 | pIC50 (Toll-like receptor 9 [7]): 6.49
Structure (SMILES): CNCCN1CCC(c2ccc3[nH]c(-c4ccc(OC)c(OC)c4)c(C(C)C)c3c2)CC1
